Measurements published in US8609660B2, “4,7-dihydro-pyrazolo[1,5-a]pyrazin-6-ylamine derivatives useful as inhibitors of beta-secretase (BACE)” (Janssen Pharmaceutica NV, priority 2010, dated 2013).

Legend:
[1] = molecular target: T1, recombinant BACE1 protein (Homo sapiens, UniProt P56817); experiment: Biochemical FRET based assay; settings: recombinant BACE1 1 μg/ml, 120 min, room temperature, pH 5.0; for IC50: read-out: Biochemical FRET based assay pIC50 (converted)
T1 construct: recombinant BACE1 protein in a final concentration of 1 μg/ml
T1 sequence (P56817 46-501): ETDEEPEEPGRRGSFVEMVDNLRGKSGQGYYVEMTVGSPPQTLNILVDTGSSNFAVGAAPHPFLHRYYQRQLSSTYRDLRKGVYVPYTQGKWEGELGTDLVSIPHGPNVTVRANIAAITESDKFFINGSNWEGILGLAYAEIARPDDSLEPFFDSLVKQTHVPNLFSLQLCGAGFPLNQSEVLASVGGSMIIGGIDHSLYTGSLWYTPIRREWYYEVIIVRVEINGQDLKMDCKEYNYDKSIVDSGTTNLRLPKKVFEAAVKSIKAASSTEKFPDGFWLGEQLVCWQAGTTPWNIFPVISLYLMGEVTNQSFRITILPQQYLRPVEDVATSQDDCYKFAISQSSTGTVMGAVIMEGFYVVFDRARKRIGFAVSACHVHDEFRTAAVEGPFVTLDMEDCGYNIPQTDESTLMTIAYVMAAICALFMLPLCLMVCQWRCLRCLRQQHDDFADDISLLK
Excerpt: Biochemical FRET Based Assay This assay is a Fluorescence Resonance Energy Transfer Assay (FRET) based assay. The substrate for this assay is an APP derived 13 amino acids peptide that contains the 'Swedish' […] mutation of the amyloid precursor protein (APP) β-secretase cleavage site. […] Upon cleavage by BACE1, the fluorophore Mca is separated from the quenching group Dnp, restoring the full fluorescence yield of the donor. The increase in fluorescence is linearly related to the rate of proteolysis (Koike H et al. J Biochem. 1999, 126, 235-42). Briefly in a 384-well format recombinant BACE1 protein in a final concentration of 1 μg/ml is incubated for 120 minutes at room temperature with 10 μm substrate in incubation buffer (40 mM Citrate buffer pH 5.0, 0.04% PEG, 4% DMSO) in the absence or presence of compound. Next the amount of proteolysis is directly measured by fluorescence measurement at T=0 and T=120 (excitation at 320 nm and emission at 405 nm). […] [formula]

[2] = test system: Aβ42 produced and secreted into the medium of human neuroblastoma SKNBE2 cells; experiment: Cellular αlisa assay in SKNBE2 cells, Aβ42; format: cell-based; settings: SKNBE2 cells expressing hAPP695, 18 hours incubation
Description: (§1) Cellular αlisa Assay in SKNBE2 Cells In two αlisa assays the levels of Aβtotal and Aβ42 produced and secreted into the medium of human neuroblastoma SKNBE2 cells are quantified. The assay is based on the human neuroblastoma SKNBE2 expressing the wild type Amyloid Precursor Protein (hAPP695). […] Aβtotal and Aβ42 are measured by sandwich α[…] sandwich assay using biotinylated antibody AbN/25 attached to streptavidin coated beads and antibody Ab4G8 or cAb42/26 conjugated acceptor beads for the detection of Aβtotal and Aβ42 respectively. In the presence of Aβtotal or Aβ42, the beads come into close proximity. The excitation of the Donor beads provokes the release of singlet oxygen molecules that triggers a cascade of energy transfer in the Acceptor beads, resulting in light emission. Light emission is measured after 1 hour incubation (excitation at […] and emission at 615 nm). A best-fit curve is fitted by a minimum sum of squares method to the plot of % Controlmin versus compound concentration. […] [formula]

brain levels of total Aβ = experiment: In vivo efficacy: brain Aβtotal lowering (ELISA); design: species or system mouse; settings: 30 mpk, sc
Excerpt: (§2) To determine whether acute administration of an Aβ42 peptide lowering agent would reduce Aβ peptide levels in vivo, non-transgenic rodents, e.g. mice or rats were used. Animals treated with the Aβ peptide lowering agent were examined and compared to those untreated or treated with vehicle and brain levels of soluble Aβ42 and total Aβ were quantitated by standard techniques, for example, using ELISA. Treatment periods varied from hours (h) to days and were adjusted based on the results of the Aβ42 lowering once a time course of onset of effect could be established.
(§3) A typical protocol for measuring Aβ42 lowering in vivo is shown but it is only one of many variations that could be used to optimize the levels of detectable Aβ. For example, Aβ peptide lowering compounds were formulated in 20% hydroxypropyl β cyclodextrin. The Aβ peptide lowering agents were administered as a single oral dose (p.o.) or a single subcutaneous dose (s.c.) to overnight fasted animals. After a certain time, usually 2 or 4 h (as indicated in Table 19), the animals were sacrificed and Aβ42 levels were analysed.
(§4) Blood was collected by decapitation and exsanguinations in EDTA-treated collection tubes. […] The left hemisphere was stored at −18° C. for quantitative analysis of test compound levels. […]
(§5) Mouse brains from non-transgenic animals were resuspended in 8 volumes of 0.4% DEA (diethylamine)/50 mM NaCl containing protease inhibitors (Roche-11873580001 or 04693159001) per gram of tissue, e.g. for 0.158 g brain, add 1.264 ml of 0.4% DEA. […] Nine parts of supernatant were neutralized with 1 part 0.5 M Tris-HCl pH 6.8 and used to quantify Aβtotal and Aβ42.
To quantify the amount of Aβtotal and Aβ42 in the soluble fraction of the brain homogenates, Enzyme-Linked-Immunosorbent-Assays were used. […] Following this incubation and subsequent wash steps the ELISA for Aβ42 quantification was finished by addition of Quanta Blu fluorogenic peroxidase substrate according to the manufacturer's instructions (Pierce Corp., Rockford, Ill.). A reading was performed after 10 to 15 min (excitation 320 nm/emission 420 nm). […]

[3] = test system: brain levels of soluble Aβ42; experiment: In vivo efficacy: brain Aβ42 lowering (ELISA); design: species or system mouse; settings: 30 mpk, sc
Excerpt: as §2, §3, §4, §5
To quantify the amount of Aβtotal and Aβ42 in the soluble fraction of the brain homogenates, Enzyme-Linked-Immunosorbent-Assays were used. […] Following this incubation and subsequent wash steps the ELISA for Aβ42 quantification was finished by addition of Quanta Blu fluorogenic peroxidase substrate according to the manufacturer's instructions (Pierce Corp., Rockford, Ill.). A reading was performed after 10 to 15 min (excitation 320 nm/emission 420 nm).

[4] = test system: Aβtotal produced and secreted into the medium of human neuroblastoma SKNBE2 cells; experiment: Cellular αlisa assay in SKNBE2 cells, Aβtotal; format: cell-based; settings: SKNBE2 cells expressing hAPP695, 18 hours incubation
Description: as §1

| IC50 [1] [µM] | IC50 ([2]; Homo sapiens, SKNBE2, 18 h, read-out: Cellular αlisa assay in SKNBE2 cells Aβ42 pIC50 (converted)) [µM] | melting point [°C] | IC50 ([4]; Homo sapiens, SKNBE2, 18 h, read-out: Cellular αlisa assay in SKNBE2 cells Aβtotal pIC50 (converted)) [µM] | Structure (SMILES) | Aβtotal (% Ctrl)_Mean (brain levels of total Aβ; 4 h after administration) [% Ctrl] | Aβ42 (% Ctrl)_Mean ([3]; 4 h after administration) [% Ctrl] | Cellular αlisa assay in SKNBE2 cells Aβ42 pIC50 [2] | Cellular αlisa assay in SKNBE2 cells Aβtotal pIC50 [4] | Biochemical FRET based assay pIC50 [1] | Aβtotal (% Ctrl)_Mean (brain levels of total Aβ; 2 h after administration) [% Ctrl] | Aβ42 (% Ctrl)_Mean ([3]; 2 h after administration) [% Ctrl] |
| --- | --- | --- | --- | --- | --- | --- | --- | --- | --- | --- | --- |
| 1.66 | 0.112 | 191.8 | 0.105 | COc1cncc(-c2cccc(C3(C)N=C(N)Cn4nccc43)c2)c1 (racemic) [Compound 2, rac-4-[3-(5-methoxypyridin-3-yl)-phenyl]-4-methyl-4,7-dihydropyrazolo[1,5-a]pyrazin-6-amine] | 116 | 109 |  |  |  |  |  |
| 0.0427 |  |  |  | CC1(c2cc(NC(=O)c3ccc(Cl)cn3)ccc2F)N=C(N)Cn2nccc21 (single isomer, unassigned) [Compound 11, (R*)—N-[3-(6-amino-4-methyl-4,7-dihydropyrazolo[1,5-a]pyrazin-4-yl)-4-fluorophenyl]-5-chloropyridine-2-carboxamide] | 80 | 71 | 8.36 | 8.37 |  |  |  |
|  |  |  |  | CC1(c2cccc(-c3cc(Cl)cc(Cl)c3)c2)N=C(N)Cn2nccc21 (stereo not shown) [Compound 20] |  |  | 6.33 | 6.37 | 6.76 | 80 | 86 |
